Legend:
Assay type in all cases: in vivo
[1] = test system: barnyardgrass (Echinochloa crus-galli); assay: Test B flooded paddy test; conditions: Echinochloa crus-galli, 360 h, Flood, 250 g ai/ha; visually evaluated after 13 to 15 d; read-out: Plant response rating, Barnyardgrass (0 to 100 scale where 0 is no effect and 100 is complete control)
How it was run: (§1)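 Rating scale 0–100 (visual, vs untreated controls) after a 13–15 d greenhouse period; application to the flood layer, 3 cm above soil and maintained; plants at 2-leaf stage when treated.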

[2] = test system: sedge, umbrella (small-flower umbrella sedge, Cyperus difformis); assay: Test B flooded paddy test; conditions: Cyperus difformis, 360 h, Flood, 250 g ai/ha; visually evaluated after 13 to 15 d; read-out: Plant response rating, Sedge, Umbrella (0 to 100 scale where 0 is no effect and 100 is complete control)
How it was run: as §1

[3] = test system: ducksalad (Heteranthera limosa); assay: Test B flooded paddy test; conditions: Heteranthera limosa, 360 h, Flood, 250 g ai/ha; visually evaluated after 13 to 15 d; read-out: Plant response rating, Ducksalad (0 to 100 scale where 0 is no effect and 100 is complete control)
How it was run: as §1

[4] = test system: rice (Oryra sativa); assay: Test B flooded paddy test; conditions: Oryza sativa, 360 h, Flood, 250 g ai/ha; visually evaluated after 13 to 15 d; read-out: Plant response rating, Rice (0 to 100 scale where 0 is no effect and 100 is complete control)
How it was run: as §1

[5] = test system: Kochia (Kochia scoparia); assay: Test A preemergence; conditions: Bassia scoparia, pre-emergence, 240 h, Preemergence; for pest or weed control at 31 g/ha: 31 g ai/ha, 0 to 100 scale where 0 is no effect and 100 is complete control, read-out: Kochia plant response rating; for pest or weed control at 125 g/ha: 125 g ai/ha, 0 to 100 scale (0 no effect, 100 complete control), read-out: Plant response rating, Kochia
How it was run: (§2)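 Visual injury scores from 0, no effect, to 100, complete control, were assigned versus untreated controls roughly 10 d after treatment in the greenhouse. Test chemicals, formulated with surfactant in a non-phytotoxic solvent, were applied to planted seeds as a preemergence soil spray or postemergence to one- to two-leaf plants 2 to 10 cm tall, in loam–sand soil.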

[6] = test system: ragweed (common ragweed, Ambrosia elatior); assay: Test A preemergence; conditions: Ambrosia artemisiifolia, pre-emergence, 240 h, Preemergence; for pest or weed control at 31 g/ha: 31 g ai/ha, 0 to 100 scale where 0 is no effect and 100 is complete control, read-out: Ragweed plant response rating; for pest or weed control at 125 g/ha: 125 g ai/ha, 0 to 100 scale (0 no effect, 100 complete control), read-out: Plant response rating, Ragweed
How it was run: as §2

[7] = test system: barnyardgrass (Echinochloa crus-galli); assay: Test A preemergence; conditions: Echinochloa crus-galli, pre-emergence, 240 h, Preemergence; for pest or weed control at 31 g/ha: 31 g ai/ha, 0 to 100 scale where 0 is no effect and 100 is complete control, read-out: Barnyardgrass plant response rating; for pest or weed control at 125 g/ha: 125 g ai/ha, 0 to 100 scale (0 no effect, 100 complete control), read-out: Plant response rating, Barnyardgrass
How it was run: as §2

[8] = test system: pigweed (Amaranthus retroflexus); assay: Test A preemergence; conditions: Amaranthus retroflexus, pre-emergence, 240 h, Preemergence; for pest or weed control at 31 g/ha: 31 g ai/ha, 0 to 100 scale where 0 is no effect and 100 is complete control, read-out: Pigweed plant response rating; for pest or weed control at 125 g/ha: 125 g ai/ha, 0 to 100 scale (0 no effect, 100 complete control), read-out: Plant response rating, Pigweed
[9] = test system: giant foxtail (Setaria faberii); assay: Test A preemergence; conditions: Setaria faberi, pre-emergence, 240 h, Preemergence; for pest or weed control at 31 g/ha: 31 g ai/ha, 0 to 100 scale where 0 is no effect and 100 is complete control, read-out: Foxtail, Giant plant response rating; for pest or weed control at 125 g/ha: 125 g ai/ha, 0 to 100 scale (0 no effect, 100 complete control), read-out: Plant response rating, Foxtail, Giant
How it was run: as §2

[10] = test system: ryegrass, Italian (Italian ryegrass, Lolium multiflorum); assay: Test A preemergence; conditions: Lolium multiflorum, pre-emergence, 240 h, Preemergence; for pest or weed control at 31 g/ha: 31 g ai/ha, 0 to 100 scale where 0 is no effect and 100 is complete control, read-out: Ryegrass, Italian plant response rating; for pest or weed control at 125 g/ha: 125 g ai/ha, 0 to 100 scale (0 no effect, 100 complete control), read-out: Plant response rating, Ryegrass, Italian
How it was run: as §2

[11] = test system: Kochia (Kochia scoparia); assay: Test A postemergence; conditions: Bassia scoparia, post-emergence, 240 h, Postemergence, read-out: Kochia plant response rating (0 to 100 scale); for pest or weed control at 125 g/ha: 125 g ai/ha, visual rating about 10 d after treatment; for pest or weed control at 31 g/ha: 31 g ai/ha, 0 is no effect, 100 is complete control
How it was run: as §2

[12] = test system: ragweed (common ragweed, Ambrosia elatior); assay: Test A postemergence; conditions: Ambrosia artemisiifolia, post-emergence, 240 h, Postemergence, read-out: Ragweed plant response rating (0 to 100 scale); for pest or weed control at 125 g/ha: 125 g ai/ha, visual rating about 10 d after treatment; for pest or weed control at 31 g/ha: 31 g ai/ha, 0 is no effect, 100 is complete control
How it was run: as §2

[13] = test system: Galium (catchweed bedstraw, Galium aparine); assay: Test A postemergence; conditions: Galium, post-emergence, 240 h, Postemergence, read-out: Galium plant response rating (0 to 100 scale); for pest or weed control at 125 g/ha: 125 g ai/ha, visual rating about 10 d after treatment; for pest or weed control at 31 g/ha: 31 g ai/ha, 0 is no effect, 100 is complete control
How it was run: as §2

[14] = test system: barnyardgrass (Echinochloa crus-galli); assay: Test A postemergence; conditions: Echinochloa crus-galli, post-emergence, 240 h, Postemergence; for pest or weed control at 125 g/ha: 125 g ai/ha, visual rating about 10 d after treatment, read-out: Barnyardgrass plant response rating (0 to 100 scale, 0 no effect, 100 complete control); for pest or weed control at 31 g/ha: 31 g ai/ha, 0 is no effect, 100 is complete control, read-out: Barnyardgrass plant response rating (0 to 100 scale)
How it was run: as §2

[15] = test system: pigweed (Amaranthus retroflexus); assay: Test A postemergence; conditions: Amaranthus retroflexus, post-emergence, 240 h, Postemergence, read-out: Pigweed plant response rating (0 to 100 scale); for pest or weed control at 125 g/ha: 125 g ai/ha, visual rating about 10 d after treatment; for pest or weed control at 31 g/ha: 31 g ai/ha, 0 is no effect, 100 is complete control
How it was run: as §2

[16] = test system: corn (Zea mays); assay: Test A postemergence; conditions: Zea mays, post-emergence, 240 h, Postemergence, read-out: Corn plant response rating (0 to 100 scale); for plant injury at 125 g/ha: 125 g ai/ha, visual rating about 10 d after treatment; for plant injury at 31 g/ha: 31 g ai/ha, 0 is no effect, 100 is complete control
How it was run: as §2

[17] = test system: blackgrass (Alopecurus myosuroides); assay: Test A postemergence; conditions: Alopecurus myosuroides, post-emergence, 240 h, Postemergence, read-out: Blackgrass plant response rating (0 to 100 scale); for pest or weed control at 125 g/ha: 125 g ai/ha, visual rating about 10 d after treatment; for pest or weed control at 31 g/ha: 31 g ai/ha, 0 is no effect, 100 is complete control
How it was run: as §2

[18] = test system: wheat (Triticum aestivum); assay: Test A postemergence; conditions: Triticum aestivum, post-emergence, 240 h, Postemergence, read-out: Wheat plant response rating (0 to 100 scale); for plant injury at 125 g/ha: 125 g ai/ha, visual rating about 10 d after treatment; for plant injury at 31 g/ha: 31 g ai/ha, 0 is no effect, 100 is complete control
How it was run: as §2

[19] = test system: giant foxtail (Setaria faberii); assay: Test A postemergence; conditions: Setaria faberi, post-emergence, 240 h, Postemergence, read-out: Foxtail, Giant plant response rating (0 to 100 scale); for pest or weed control at 125 g/ha: 125 g ai/ha, visual rating about 10 d after treatment; for pest or weed control at 31 g/ha: 31 g ai/ha, 0 is no effect, 100 is complete control
How it was run: as §2

[20] = test system: ryegrass, Italian (Italian ryegrass, Lolium multiflorum); assay: Test A postemergence; conditions: Lolium multiflorum, post-emergence, 240 h, Postemergence, read-out: Ryegrass, Italian plant response rating (0 to 100 scale); for pest or weed control at 125 g/ha: 125 g ai/ha, visual rating about 10 d after treatment; for pest or weed control at 31 g/ha: 31 g ai/ha, 0 is no effect, 100 is complete control
How it was run: as §2

COc1c([C@H]2CN(C)C(=O)[C@@H]2C(=O)Nc2cccc(F)c2F)cccc1C(F)(F)F [Compound 1339]
60%: pest or weed control at 250 g/ha [4]
90%: pest or weed control at 31 g/ha [7] | pest or weed control at 125 g/ha [7] | pest or weed control at 125 g/ha [9] | pest or weed control at 125 g/ha [14]
20%: pest or weed control at 125 g/ha [10] | pest or weed control at 125 g/ha [11] | pest or weed control at 125 g/ha [12] | pest or weed control at 31 g/ha [15]
95%: pest or weed control at 250 g/ha [1]
0%: pest or weed control at 250 g/ha [2] | pest or weed control at 31 g/ha [5] | pest or weed control at 31 g/ha [6] | pest or weed control at 125 g/ha [6] | pest or weed control at 31 g/ha [8] | pest or weed control at 125 g/ha [8] | pest or weed control at 31 g/ha [10] | pest or weed control at 31 g/ha [11] | pest or weed control at 31 g/ha [12] | plant injury at 125 g/ha [16] | plant injury at 31 g/ha [16] | pest or weed control at 125 g/ha [17] | pest or weed control at 31 g/ha [17] | plant injury at 125 g/ha [18] | plant injury at 31 g/ha [18] | pest or weed control at 125 g/ha [20] | pest or weed control at 31 g/ha [20]
30%: pest or weed control at 31 g/ha [13] | pest or weed control at 125 g/ha [15]
70%: pest or weed control at 31 g/ha [14] | pest or weed control at 31 g/ha [19]
100%: pest or weed control at 250 g/ha [3]
80%: pest or weed control at 31 g/ha [9] | pest or weed control at 125 g/ha [19]
50%: pest or weed control at 125 g/ha [5] | pest or weed control at 125 g/ha [13]

CC(C)Oc1ccc([C@H]2CN(C)C(=O)[C@@H]2C(=O)Nc2ccccc2F)cc1F [Compound 1333]
60%: pest or weed control at 125 g/ha [19]
20%: pest or weed control at 250 g/ha [4]
0%: pest or weed control at 31 g/ha [5] | pest or weed control at 31 g/ha [6] | pest or weed control at 125 g/ha [6] | pest or weed control at 31 g/ha [8] | pest or weed control at 125 g/ha [8] | pest or weed control at 31 g/ha [10] | pest or weed control at 125 g/ha [10] | pest or weed control at 125 g/ha [11] | pest or weed control at 31 g/ha [11] | pest or weed control at 125 g/ha [12] | pest or weed control at 31 g/ha [12] | pest or weed control at 125 g/ha [13] | pest or weed control at 31 g/ha [13] | pest or weed control at 31 g/ha [14] | pest or weed control at 31 g/ha [15] | plant injury at 125 g/ha [16] | plant injury at 31 g/ha [16] | pest or weed control at 125 g/ha [17] | pest or weed control at 31 g/ha [17] | plant injury at 125 g/ha [18] | plant injury at 31 g/ha [18] | pest or weed control at 31 g/ha [19] | pest or weed control at 125 g/ha [20] | pest or weed control at 31 g/ha [20]
90%: pest or weed control at 31 g/ha [9] | pest or weed control at 125 g/ha [9]
30%: pest or weed control at 125 g/ha [5]
70%: pest or weed control at 250 g/ha [2] | pest or weed control at 125 g/ha [7] | pest or weed control at 125 g/ha [14]
40%: pest or weed control at 31 g/ha [7]
45%: pest or weed control at 250 g/ha [1]
80%: pest or weed control at 250 g/ha [3]
10%: pest or weed control at 125 g/ha [15]

From patent US12077503B2, “Substituted cyclic amides and their use as herbicides” (FMC CORPORATION, priority 2015, dated 2024)
